Data on 1 compound can be found in patent publication US11911356B2, “Regulation of mutant TERT by BRAF V600E/map kinase pathway through FOS/GABP in human cancer” (THE JOHNS HOPKINS UNIVERSITY, priority 2017, dated 2024).

SMILES strings stand for the structures.

One assay has as its system ERK phosphorylation. Description: Western blotting of phosphorylated ERK in inhibitor-treated cells. It counts as cell-based, human. As to conditions: 0.5 uM PLX4032, 24 hours. As to the method: FIG. 2A-2G. BRAF V600E/MAPK pathway regulated TERT expression. (FIG. 2A) TERT expression was analyzed by qRT-PCR in cells treated with 0.5 uM PLX4032 or 0.2 uM AZD6244 for 24 hours (upper panel). The corresponding levels of phosphorylated ERK (p-ERK), total ERK (t-ERK), and beta-actin were detected by Western blotting (lower panel). The relative TERT mRNA expression levels were normalized to the DMSO control group. (FIG. 2B) Luciferase reporting assay of TERT promoter activities in K1 cells treated with DMSO or PLX4032 (0.5 uM). (FIG. 2C, 2D) Specific shRNA against BRAF were used to knock down BRAF in thyroid cancer cell lines BCPAP and K1 and melanoma cell line A375. Scramble shRNA was used as control. Cells were then subjected to Western blotting (FIG. 2C) and qRT-PCR (FIG. 2D). (FIG. 2E) Sequencing of the BRAF exon-15 in the parental and heterozygous BRAF-V600E knock-in SW48 cells. BRAF V600E was knocked in on one allele of BRAF by rAAV technology through homologous recombination and Cre recombinase of the Neo cassette. (FIG. 2F) Western blotting analyses of phosphorylation of ERK (p-ERK), total ERK (t-ERK), BRAF, and beta-actin in the parental and BRAF-V600E knock-in SW48 cells. (FIG. 2G) TERT promoter luciferase reporter assay in SW48 cells with/without BRAF V600E knock-in. **P<0.01, ***P<0.001, by 2-tailed Student's t test. P values are for the comparison of the indicated condition with DMSO (FIG. 2B), scramble (FIG. 2D), or BRAF-WT groups (FIG. 2G). All the values represent the average standard deviation (SD) of triplicate samples from a typical experiment. All the experiments were performed three times with similar results. […]
Cells were lysed in the RIPA buffer (#sc-24948; Santa Cruz Biotechnology, Santa Cruz, CA) with protease inhibitor cocktail (#P8340; Sigma-Aldrich) and phosphatase inhibitor cocktail (#P0044; Sigma-Aldrich) and Western blotting analysis was performed as we previously described^54. […] Signals were detected by SuperSignal™ West Pico PLUS Chemiluminescent Substrate (#34579; Thermo Fisher Scientific). […]

The subject of a further assay is TERT expression. Kind of assay: TERT expression by qRT-PCR in human cancer cell lines treated with inhibitors. As to conditions: for TERT expression: 0.5 uM PLX4032, 24 hours. It counts as cell-based. As to the method:
FIG. 2A-2G. BRAF V600E/MAPK pathway regulated TERT expression. (FIG. 2A) TERT expression was analyzed by qRT-PCR in cells treated with 0.5 uM PLX4032 or 0.2 uM AZD6244 for 24 hours (upper panel). The corresponding levels of phosphorylated ERK (p-ERK), total ERK (t-ERK), and beta-actin were detected by Western blotting (lower panel). The relative TERT mRNA expression levels were normalized to the DMSO control group. (FIG. 2B) Luciferase reporting assay of TERT promoter activities in K1 cells treated with DMSO or PLX4032 (0.5 uM). (FIG. 2C, 2D) Specific shRNA against BRAF were used to knock down BRAF in thyroid cancer cell lines BCPAP and K1 and melanoma cell line A375. Scramble shRNA was used as control. Cells were then subjected to Western blotting (FIG. 2C) and qRT-PCR (FIG. 2D). (FIG. 2E) Sequencing of the BRAF exon-15 in the parental and heterozygous BRAF-V600E knock-in SW48 cells. BRAF V600E was knocked in on one allele of BRAF by rAAV technology through homologous recombination and Cre recombinase of the Neo cassette. (FIG. 2F) Western blotting analyses of phosphorylation of ERK (p-ERK), total ERK (t-ERK), BRAF, and beta-actin in the parental and BRAF-V600E knock-in SW48 cells. (FIG. 2G) TERT promoter luciferase reporter assay in SW48 cells with/without BRAF V600E knock-in. **P<0.01, ***P<0.001, by 2-tailed Student's t test. P values are for the comparison of the indicated condition with DMSO (FIG. 2B), scramble (FIG. 2D), or BRAF-WT groups (FIG. 2G). All the values represent the average standard deviation (SD) of triplicate samples from a typical experiment. All the experiments were performed three times with similar results.
FIG. 3A-3C. MYC regulated TERT expression in a TERT promoter mutation-independent manner. (FIG. 3A) The four indicated cancer cell lines harboring BRAF V600E mutation were treated with 0.5 uM PLX4032 and/or 10 nM MYC-specific siRNA (siMYC) for 24 hours, which were then subjected to Western blotting (upper panel) and qRT-PCR (lower panel). The relative TERT mRNA expression was normalized to the control group. (FIG. 3B, 3C) Parental and BRAF V600E knock-in SW48 cells were treated with control siRNA (siControl) or MYC-specific siRNA (siMYC, 10 nM) for 48 h, followed by Western blotting (FIG. 3B) and luciferase reporter assays (FIG. 3C). *P<0.05, **P<0.01, ***P<0.001, by 2-tailed Student's t test. n.s., not significant. All the values represent the average standard deviation (SD) of triplicate samples from a typical experiment. Similar results were obtained in two additional independent experiments.
FIG. 9A-9B. Summarized effects of PLX4032 (FIG. 9A) and AZD6244 (FIG. 9B) on TERT mRNA expression. Each bar represents the average+SD of the cells with the same genotypes as follows: BRAF-mut and TERT-mut cell lines: BCPAP, K1, OCUT1, A375, and M14; BRAF-mut and TERT-wt cell lines: SK-MEL-1, SK-MEL-3, and RKO; BRAF-wt and TERT-mut cell lines: TPC1, KAT18, C643, CHL-1, SK-MEL-2, and Mewo; BRAF-wt and TERT-wt cell lines: FB1, WRO, and HTORI3. Compared with the corresponding control of DMSO, **P<0.01, ***P<0.001, by independent t-test.
The BRAF V600E-specific inhibitor PLX4032 (#S1267) and the MEK1 inhibitor AZD6244 (#S1008) were purchased from Selleck Chemicals (Houston, TX), dissolved in DMSO with a stock concentration of 10 mM and stored at −20° C. PLX4032 and AZD6244 were used to treat cells for 24 hours at 0.5 μM and 0.2 μM, respectively, where indicated in the manuscript. DMSO was used as the vehicle control.
Total RNA was extracted from cultured cells using the TRIzol reagent (#15596-018; Ambion, Life Technologies, Carlsbad, CA) and reverse-transcribed to cDNA using the SuperScript III First-Strand Synthesis System (#18080-051; Invitrogen, Life Technologies, Carlsbad, CA). Gene expression was analyzed in triplicate using FastStart Universal SYBR Green Master with ROX (#04913850001; Roche Applied Science, Indianapolis, IN) on the Applied Biosystems 7900HT Fast Real-Time PCR System. […]
Background: Quantitative PCR measures a nucleic acid by following its amplification.

For the compound `CCCS(=O)(=O)Nc1ccc(F)c(C(=O)c2c[nH]c3ncc(-c4ccc(Cl)cc4)cc23)c1F` [PLX4032], the ERK phosphorylation result in the assay with ERK phosphorylation (cells harboring BRAF V600E mutation) is given as “specifically suppressed ERK phosphorylation”; with ERK phosphorylation (several wild-type BRAF cell lines), “increase in ERK phosphorylation”. The TERT expression result in the assay on TERT expression (RKO and SK-MEL-3 cells, wild-type TERT promoter) is on record as “moderate level”; with TERT expression (all the cells harboring BRAF mutation (FIG. 3A)) it was “decreased TERT expression”; with TERT expression (cells harboring both BRAF V600E and TERT promoter mutations), “dramatically inhibited TERT expression”; with TERT expression (cells harboring the wild-type TERT promoter) it was “limited effect”; in the assay on TERT expression (cells harboring wild-type BRAF), “no inhibitory effect”; in the assay on TERT expression (wild-type BRAF cell lines, especially TERT mutant cells (KAT18, C643 and CHL-1)) it was “increase in TERT expression”. Further, in the assay on TERT expression (cells harboring TERT promoter mutations, 0.5 uM PLX4032 with 10 nM siMYC, 24 hours), the “TERT expression after siRNA knockdown of MYC” value is reported as “could further inhibit TERT expression”.
